Experimental data taken from patent US10301264B2, “Compounds useful for treating ocular neovasculan” (The University of Nottingham, priority 2012, dated 2019).
Values after ≈ are worked out from the molar mass of the structure shown. “Also recorded” adds a separate entry of the source. Read-outs that look alike come from different tables or passages of the source. One block for each molecule: values may come before it.

How the values were obtained:
[1] = system: SRSF1 expression in ARPE-19 cells; experiment: SRSF1 expression relative to tubulin in ARPE-19 cells; type: cell-based, human; conditions: 72 hours up to six days
Procedure: Protein samples (30-50 μg) were mixed with 1× sodium-dodecyl sulphate (SDS) loading buffer (100 mM Tris-HCl, 4% SDS, 20% glycerol, 0.2% (w/v) bromophenol blue, and 5% final concentration 2-mercaptoethanol, pH6.8). To denature the protein, samples were boiled for five minutes at 100° C.
Samples were subjected to polyacrylamide gel electrophoresis (PAGE) on a 12% SDS-PAGE gel at 90V in ice cold running buffer (25 mM Tris-HCl, 250 mM glycine, 0.1% SDS, pH8.3) for approximately 2.5 hours. The separated proteins were then electrophoretically blotted to a methanol-activated polyvinylidene fluoride (PVDF) membrane (Fisher Scientific) by wet transfer for two hours at 90V in transfer buffer (50 mM Tris-HCl, 38 mM glycine, 20% methanol, pH8.3). […] The washes were repeated and the bands were detected using the Enhanced Chemoluminiscence (ECL) SuperSignal West Femto Maximum Sensitivity Substrate kit (Pierce).
The SRPK inhibitors were tested in a series of in vitro assays to determine the effect of treatment on VEGF isoform expression. Initially the effect of compound treatment on SRPK1 and SRSF1 expression was determined.

SRPK2 = SRPK2 (Homo sapiens, UniProt P78362); experiment: In vitro kinase assay, SRPK2; type: biochemical
Sequence of SRPK2 (P78362 whole entry, species assumed): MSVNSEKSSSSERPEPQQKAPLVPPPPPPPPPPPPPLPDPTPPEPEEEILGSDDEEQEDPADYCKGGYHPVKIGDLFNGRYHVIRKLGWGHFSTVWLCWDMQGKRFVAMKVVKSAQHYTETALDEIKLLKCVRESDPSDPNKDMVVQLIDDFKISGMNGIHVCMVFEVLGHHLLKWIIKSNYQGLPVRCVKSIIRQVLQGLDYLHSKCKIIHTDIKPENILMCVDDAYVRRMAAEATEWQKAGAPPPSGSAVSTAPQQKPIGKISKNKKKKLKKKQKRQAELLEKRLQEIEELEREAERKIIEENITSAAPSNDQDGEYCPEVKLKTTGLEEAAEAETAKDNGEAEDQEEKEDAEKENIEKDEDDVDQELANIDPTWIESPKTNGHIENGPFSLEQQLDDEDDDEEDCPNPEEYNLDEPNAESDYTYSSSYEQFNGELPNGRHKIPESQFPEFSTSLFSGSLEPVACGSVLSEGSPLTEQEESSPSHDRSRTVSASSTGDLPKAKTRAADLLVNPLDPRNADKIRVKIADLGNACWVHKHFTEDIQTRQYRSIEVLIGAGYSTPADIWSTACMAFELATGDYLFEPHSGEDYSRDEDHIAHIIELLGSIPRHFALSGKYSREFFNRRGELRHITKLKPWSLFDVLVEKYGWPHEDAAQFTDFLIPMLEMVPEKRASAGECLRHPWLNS

[2] = system: SRPK1 expression in ARPE-19 cells; experiment: SRPK1 expression in ARPE-19 cells (western blot); type: cell-based, human; conditions: 10 μM, up to six days
SRPK1 = SRPK1 (Homo sapiens, UniProt Q96SB4); experiment: In vitro kinase assay (Kinase-Glo), SRPK1; type: biochemical; conditions: for activity in the in vitro SRPK1 kinase assay: words
Sequence of SRPK1 (Q96SB4 whole entry, species assumed): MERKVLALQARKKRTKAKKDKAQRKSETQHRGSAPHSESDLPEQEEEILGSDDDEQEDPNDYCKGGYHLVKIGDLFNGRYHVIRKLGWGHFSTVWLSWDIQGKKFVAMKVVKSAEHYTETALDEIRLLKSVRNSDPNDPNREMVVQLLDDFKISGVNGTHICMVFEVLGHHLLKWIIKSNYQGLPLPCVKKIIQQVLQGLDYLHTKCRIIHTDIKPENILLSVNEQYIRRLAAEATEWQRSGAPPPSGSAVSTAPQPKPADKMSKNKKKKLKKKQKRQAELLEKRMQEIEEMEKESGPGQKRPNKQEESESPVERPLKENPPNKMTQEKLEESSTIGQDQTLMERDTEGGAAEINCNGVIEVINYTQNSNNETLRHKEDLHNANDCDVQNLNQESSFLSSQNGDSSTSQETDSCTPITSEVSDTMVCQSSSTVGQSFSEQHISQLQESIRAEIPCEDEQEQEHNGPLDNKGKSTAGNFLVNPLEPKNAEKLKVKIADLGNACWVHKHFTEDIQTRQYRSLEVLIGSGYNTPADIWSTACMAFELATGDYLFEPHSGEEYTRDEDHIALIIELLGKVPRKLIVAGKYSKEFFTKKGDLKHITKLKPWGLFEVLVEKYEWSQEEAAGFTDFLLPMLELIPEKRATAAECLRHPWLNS

VEGF protein expression = experiment: PanVEGF and VEGFxxxb ELISA; type: cell-based, human; conditions: FIG. 2C
Procedure: PanVEGF and VEGFxxxb enzyme-linked immunosorbent assay (ELISA).
One μg/ml pan-VEGF capture antibody (Duoset VEGF ELISA DY-293; R&D systems) was incubated overnight at room temperature. The plates were blocked (Superblock; Thermo Scientific) and serial dilutions of recombinant human (rh)VEGF165 or rhVEGF165b standards (ranging from 4 ng/ml to 16.25 pg/ml) were added, incubated alongside sample lysates, typically diluted 1:10. The plate was incubated for one hour at 37° C. with shaking, washed and incubated with 100 μl/well of either biotinylated goat anti-human VEGF (0.1 μg/ml; R & D systems) or mouse anti-human VEGF165b (0.25 μg/ml) for one further hour at 37° C. After washing, 100 μl/well of Horseradish Peroxidase (HRP)-conjugated streptavidin (1:200; R&D Systems) was added, and plates were left at room temperature for 20 minutes.
The plates were washed and colour change induced with substrate A and B (DY-999; R&D Systems) for 20 mins under light protection. The reaction was stopped by addition of 100 μl/well of 1M H2SO4 and the absorbance was read immediately in an ELISA plate reader (Dynex Technologies Opsys MR system plate reader) at 450 nm with a control reading at 570 nm. Revelation Quicklink 4.25 software was also used to calculate a standard curve from mean absorbance values of standards enabling the estimation of VEGF concentration for each sample.

[3] = system: VEGF165 mRNA isoforms in primary RPE cells; experiment: RT-PCR for VEGF165 / VEGF165b mRNA in primary RPE cells; type: cell-based, human; conditions: 5 μM, 24 hours, primary RPE cells
Procedure: ID NO: 5)). […] Cells were treated with […]6 and 7 and the PCR repeated.

laser-induced CNV [4] = experiment: Laser-induced mouse CNV model, intravitreal injection; type: in vivo; conditions: for area of neovascular lesions, mouse laser-induced CNV model: discussion summary, route not stated; for neovascular area vs control injected eyes: two intravitreal injections of 10 ng
Procedure: (§1) Laser Lesion Induction Protocol
(§2) Six to eight week-old C57/B6 mice (B&K Laboratories) and adult Norway-Brown rats (Harlan Laboratories) were anaesthetized with an intraperitoneal injection of a mixture of 50 mg/kg ketamine and 0.5 mg/kg medetomidine. The pupils were dilated with 2.5% phenylephrine hydrochloride and 1% tropicamide. Four photocoagulation lesions were delivered with a krypton red laser (Mice: 250 mW, 0.01 s, 75 μm, Rats: 200 mW, 0.01 s, 75 μm, IRIS Medical 810 nm Oculight Slx laser) between the retinal vessels in a peripapillary distribution at a distance of 1-2 disc-diameters in each eye. Only laser lesions with a subretinal bubble at the time of treatment were included in the study. […] Animals were culled on either day 4 or day 14 and eyes were either unfixed for retinal dissection and protein extraction, or fixed and enucleated and choroids stained for isolectin-B4 and examined.

[5] = Pharmacokinetics in the eye after topical application (mass spectrometry)
[6] = Pharmacokinetics in the eye after intravitreal injection (mass spectrometry); type: in vivo, mouse; conditions: 20 ng intravitreal
in vivo = conditions: CD-1, mouse, topical or ocular, 5 ug
[7] = system: VEGF165 mRNA in the retina; experiment: VEGF165 mRNA expression in retinae after topical treatment; type: in vivo; conditions: mouse, day 14
laser-induced CNV [8] = experiment: Laser-induced rat CNV model, intravitreal injection; type: in vivo; conditions: intravitreal (SRPIN340 25 ng)
Procedure: as §1, §2
MVRL10 therefore appeared to be a relatively specific inhibitor of SRPK1. To determine whether SRPK1 inhibition could inhibit CNV in animal models we tested these compounds alongside each other in a laser-induced mouse CNV model. […]

laser-induced CNV [9] = experiment: Laser-induced mouse CNV model, topical eye drops; type: in vivo
Procedure: as §1, §2
We performed a dose response trial investigating SRPIN340 topical eye drops. SRPIN340 was dissolved in a previously described drug delivery vehicle (Doukas et al., 2008) and administered twice daily. Fourteen days following laser insult choroids were fixed and flatmounted for isolectin staining and retinae were extracted for RNA analysis.

[10] = system: VEGF expression in retinal protein; experiment: Retinal protein VEGF expression by western blot, rat CNV model; type: in vivo
Procedure: as §2
Retinal protein from SRPIN340 and saline treated eyes 4 days after initial treatment was assessed for VEGF expression by western blot. […] The expression of VEGFxxxb isoforms was investigated using mouse monoclonal 561 antibody (R&D systems).

CNV lesion area = conditions: cited from earlier work
neovascular AMD = conditions: 0.5 mg monthly, at one year; cited from earlier work
[11] = Table 1, read-out: IC50 (nM) for SRPK1

inhibition of SRPK2 (SRPK2; words): no inhibition
IC50 (SRPK1; FIG. 1B, read-out: IC50 SRPK1 kinase): > 10000 nM
Molecule: O=C(Nc1cc(C(F)(F)F)ccc1N1CCOCC1)c1cccnc1 [MVRL09, N-[2-(morpholin-4-yl)-5-(trifluoromethyl)phenyl]pyridine-3-carboxamide]
expression of SRSF1 relative to a tubulin control [1]: reduced expression of SRSF1
SRPK1 expression [2]: failed to affect SRPK1 expression
VEGF expression relative to total protein (VEGF protein expression): significantly reduced total VEGF expression
expression of VEGF165b mRNA [3]: induced clear expression of VEGF165b
expression of VEGF165 mRNA relative to GAPDH [3]: reduced the expression VEGF65 at RNA level

IC50 (SRPK1; FIG. 7, read-out: SRPK1 inhibition IC50): 173 nM
IC50 (SRPK1; [11]): 177 nM
Molecule: CN(C)CCN1CCN(c2ccc(C(F)(F)F)cc2NC(=O)c2ccc(-c3cccnc3)o2)CC1 [SPHINX6]

Molecule: CN(C)CCNc1ccc(C(F)(F)F)cc1NC(=O)c1ccc(-c2cccnc2)o1 [SPHINX8]
IC50 (SRPK1; [11]): 9310 nM
activity in the in vitro SRPK1 kinase assay (SRPK1): no activity

Molecule: O=C(Nc1cc(C(F)(F)F)ccc1NCc1cccnc1)c1ccc(-c2cccnc2)o1 [SPHINX9]
IC50 (SRPK1; [11]): > 10000 nM
activity in the in vitro SRPK1 kinase assay (SRPK1): no activity

Molecule: O=C(Nc1cc(C(F)(F)F)ccc1NCc1cccnc1)c1ccc(-c2ccncc2)o1 [SPHINX10]
IC50 (SRPK1; [11]): > 10000 nM
activity in the in vitro SRPK1 kinase assay (SRPK1): no activity

IC50 (SRPK1; [11]): 367 nM
Molecule: CN1CCN(c2ccc(C(F)(F)F)cc2NC(=O)c2ccc(-c3cccnc3)o2)CC1 [SPHINX12]

IC50 (SRPK1; [11]): 1270 nM
Molecule: CN1CCN(c2ccc(C(F)(F)F)cc2NC(=O)c2ccc(C#N)o2)CC1 [SPHINX14]

preference for SRPK1 over SRPK2 (SRPK2): greater than 10 fold
inhibition at 10 µM (SRPK2; at 10 μM): 10%
Molecule: Cc1ccc(C(=O)Nc2cc(C(F)(F)F)ccc2N2CCOCC2)o1 [SPHINX, 5-methyl-N-[2-(morpholin-4-yl)-5-(trifluoromethyl)phenyl]furan-2-carboxamide]
area of neovascular lesions, mouse laser-induced CNV model (laser-induced CNV [4]): achieving significance
neovascular area vs control injected eyes (laser-induced CNV [4]; mouse): significantly reduced neovascular area
SRPK1 expression [2]: did appear to reduce SRPK1 expression

Molecule: O=C(Nc1cc(C(F)(F)F)ccc1N1CCCCC1)c1ccncc1 [SRPIN340, N-[2-(1-piperidinyl)-5-(trifluoromethyl)phenyl]isonicotinamide]
expression of SRSF1 relative to a tubulin control [1]: reduced expression of SRSF1
area of neovascular lesions, mouse laser-induced CNV model (laser-induced CNV [4]): achieving significance
EC50 on CNV area (laser-induced CNV [4]; mouse, intravitreal, total injected dose): 1.28 ng
neovascular area vs control injected eyes (laser-induced CNV [4]; mouse): significantly reduced neovascular area
detection in the eye ([5]; 48 hours after a single topical administration): still detectable
systemic detection ([5]; after a single topical administration): not detected systemically
fraction of total applied dose detected in the eye ([5]; single topical 5 μg, after 1 hour, whole eye): 3.5%
fraction of applied dose detected in the posterior chamber ([5]; single topical 5 μg, after 12 hours): 0.15%
concentration in the eye ([6]; over a 2 day period): > 10 ng/mL
half-life ([6]; mouse, eye tissue, 1-48 hours curve fit, read-out: sustained half-life in the eye (converted)): 22 h
IC50 (SRPK2): 7.4 µM
SRPK1 expression [2]: failed to affect SRPK1 expression
IC50 (SRPK1): 960 nM
half-life (in vivo): 0.583 h
VEGF expression relative to total protein (VEGF protein expression): significantly reduced total VEGF expression
VEGF165 mRNA expression in the retinae [7]: reduced; also recorded: near significant reduction in VEGF165
CNV area vs saline injected controls (laser-induced CNV [8]): significantly reduced the CNV area
CNV area, 0.01% solution (laser-induced CNV [9]; 0.01% solution in gel drug delivery vehicle, topical): significant inhibition of CNV area
EC50 (laser-induced CNV [9]; Mus musculus, topical, read-out: EC50 on CNV, topical): 3.19 µg/mL (≈ 9.12 µM)
CNV formation, eye drop (laser-induced CNV [9]; mouse, topical): significantly inhibited CNV formation; also recorded: significantly suppressed CNV
EC50 on CNV lesion area, topical drops (laser-induced CNV [9]; mouse, twice daily eye drops, total dose): 640 ng
expression of VEGF165 mRNA relative to GAPDH [3]: reduced the expression VEGF65 at RNA level
ratio of pro to anti-VEGF isoforms in retinal protein ([10]; rat, 4 days after initial treatment): No difference in the ratio of pro to anti-VEGF isoforms
VEGF expression in retinal protein ([10]; rat, 4 days after initial treatment, western blot): decrease in the expression of VEGF; also recorded: reduced CNV area and total VEGF protein expression
expression of VEGFxxxb isoforms in rat retinae ([10]; vs saline controls): no change in the expression of VEGFxxxb isoforms

Molecule: Cc1cc(-c2cc(OC(=O)c3ccccc3)ccc2Cl)cc2nnc(Nc3ccc(OCCN4CCCC4)cc3)nc12 [TG100801]
CNV lesion area (CNV lesion area; twice daily topical 0.6%): not
CNV lesion area (CNV lesion area; twice daily topical 1%): significantly reduced CNV lesion area

B1: Lucentis: humanized anti-VEGF antibody fragment, FDA approved for the treatment of neovascular AMD (antibody, chains of the INN, looked up, V domains shown)
VH: EVQLVESGGGLVQPGGSLRLSCAASGYDFTHYGMNWVRQAPGKGLEWVGWINTYTGEPTYAADFKRRFTFSLDTSKSTAYLQMNSLRAEDTAVYYCAKYPYYYGTSHWYFDVWGQGTLVTVSS
VL: DIQLTQSPSSLSASVGDRVTITCSASQDISNYLNWYQQKPGKAPKVLIYFTSSLHSGVPSRFSGSGSGTDFTLTISSLQPEDFATYYCQQYSTVPWTFGQGTKVEIK
modifications: Fab
notes: humanized anti-VEGF antibody fragment, FDA approved for the treatment of neovascular AMD
patients who maintained visual acuity (loss of <15 letters) (neovascular AMD): approximately 95%
patients with improved vision (gain of ≥15 letters) (neovascular AMD): ≤ 40%
